From patent US8163775B2, “Allosteric modulators of metabotropic glutamate receptors” (Addex Pharma SA, priority 2003, dated 2012)

SMILES	melting point [°C]
O=C(c1ccc(F)cc1)N1CCCC(c2nnc(-c3ccc(F)cc3)[nH]2)C1 (stereo not shown) [Example 1, (4-Fluoro-phenyl)-{3-[5-(4-fluoro-phenyl)-4H-[1,2,4]triazol-3-yl]-piperidin-1-yl}-methanone]	95
COc1ccc(-c2noc(C3CCCN(C(=O)c4ccccc4)C3)n2)cc1 (stereo not shown) [Example 3, {3-[3-(4-Methoxy-phenyl)-[1,2,4]oxadiazol-5-yl]-piperidin-1-yl}-phenyl-methanone]	121
O=C(c1ccccc1)N1CCCC(c2nc(-c3ccc(F)cc3)no2)C1 (stereo not shown) [Example 5, {3-[3-(4-Fluoro-phenyl)-[1,2,4]oxadiazol-5-yl]-piperidin-1-yl}-phenyl-methanone]	82 to 83
O=C(c1cccc(F)c1)N1CCCC(c2nc(-c3ccc(F)cc3)no2)C1 (stereo not shown) [Example 6, (3-Fluoro-phenyl)-{3-[3-(4-fluoro-phenyl)-[1,2,4]oxadiazol-5-yl]-piperidin-1-yl}-methanone]	139 to 140
O=C(c1ccc(F)cc1)N1CCCC(c2nc(-c3ccccc3)no2)C1 (stereo not shown) [Example 7, (4-Fluoro-phenyl)-[3-(3-phenyl-[1,2,4]oxadiazol-5-yl)-piperidin-1-yl]-methanone]	78 to 79
O=C(c1ccc(F)cc1)N1CCCC(c2nc(-c3cccc(F)c3)no2)C1 (stereo not shown) [Example 10, (4-Fluoro-phenyl)-{3-[3-(3-fluoro-phenyl)-[1,2,4]oxadiazol-5-yl]-piperidin-1-yl}-methanone]	86 to 89
O=C(c1cccs1)N1CCC[C@H](c2nc(-c3ccc(F)cc3)no2)C1 [Example 13, S-(thiophen-2-yl)-{3-[3-(4-fluoro-phenyl)-[1,2,4]oxadiazol-5-yl]-piperidin-1-yl}-methanone]	82 to 83
Cc1nc(-c2cnccn2)sc1C(=O)N1CCC[C@H](c2nc(-c3ccc(F)cc3)no2)C1 [Example 14, {(S)-3-[3-(4-Fluoro-phenyl)-[1,2,4]oxadiazol-5-yl]-piperidin-1-yl}-(4-methyl-2-pyrazin-2-yl-thiazol-5-yl)-methanone]	147 to 148
O=C(c1csnn1)N1CCC[C@H](c2nc(-c3ccc(F)cc3)no2)C1 [Example 18, {(S)-3-[3-(4-Fluoro-phenyl)-[1,2,4]oxadiazol-5-yl]-piperidin-1-yl}-[1,2,3]thiadiazol-4-yl-methanone]	90 to 91
O=C(c1nc2ccccc2s1)N1CCC[C@H](c2nc(-c3ccc(F)cc3)no2)C1 [Example 19, Benzothiazol-2-yl-{(S)-3-[3-(4-fluoro-phenyl)-[1,2,4]oxadiazol-5-yl]-piperidin-1-yl}-methanone]	130 to 131
Cc1cc(C(=O)N2CCC[C@H](c3nc(-c4ccc(F)cc4)no3)C2)nn1C [Example 21, (1,5-Dimethyl-1H-pyrazol-3-yl)-{(S)-3-[3-(4-fluoro-phenyl)-[1,2,4]oxadiazol-5-yl]-piperidin-1-yl}-methanone]	108 to 109
O=C(c1ccc(C(F)(F)F)cc1)N1CCC[C@H](c2nc(-c3ccc(F)cc3)no2)C1 [Example 22, {(S)-3-[3-(4-Fluoro-phenyl)-[1,2,4]oxadiazol-5-yl]-piperidin-1-yl}-(4-trifluoromethyl-phenyl)-methanone]	109 to 110
N#Cc1ccc(C(=O)N2CCC[C@H](c3nc(-c4ccc(F)cc4)no3)C2)cc1 [Example 23, 4-{(S)-3-[3-(4-Fluoro-phenyl)-[1,2,4]oxadiazol-5-yl]-piperidine-1-carbonyl}-benzonitrile]	129 to 130
O=C(c1ccno1)N1CCC[C@H](c2nc(-c3ccc(F)cc3)no2)C1 [Example 24, {(S)-3-[3-(4-Fluoro-phenyl)-[1,2,4]oxadiazol-5-yl]-piperidin-1-yl}-isoxazol-5-yl-methanone]	93 to 94
O=C(c1cc(F)c(F)c(F)c1)N1CCC[C@H](c2nc(-c3ccc(F)cc3)no2)C1 [Example 26, {(S)-3-[3-(4-Fluoro-phenyl)-[1,2,4]oxadiazol-5-yl]-piperidin-1-yl}-(3,4,5-trifluoro-phenyl)-methanone]	139 to 140
O=C(c1ccc(F)c(Cl)c1)N1CCC[C@H](c2nc(-c3ccc(F)cc3)no2)C1 [Example 27, (3-Chloro-4-fluoro-phenyl)-{(S)-3-[3-(4-fluoro-phenyl)-[1,2,4]oxadiazol-5-yl]-piperidin-1-yl}-methanone]	123 to 124
Cc1cc(C(=O)N2CCC[C@H](c3nc(-c4ccc(F)cc4)no3)C2)ccc1F [Example 30, (4-Fluoro-3-methyl-phenyl)-{(S)-3-[3-(4-fluoro-phenyl)-[1,2,4]oxadiazol-5-yl]-piperidin-1-yl}-methanone]	106 to 107
O=C(c1ccc(-c2ccccn2)s1)N1CCC[C@H](c2nc(-c3ccc(F)cc3)no2)C1 [Example 31, {(S)-3-[3-(4-Fluoro-phenyl)-1,2,4-oxadiazol-5-yl]-piperidin-1-yl}-(5-pyridin-2-yl-thiophen-2-yl)-methanone]	115 to 117
Cc1ccsc1C(=O)N1CCC[C@H](c2nc(-c3ccc(F)cc3)no2)C1 [Example 32, {(S)-3-[3-(4-Fluoro-phenyl)-1,2,4-oxadiazol-5-yl]-piperidin-1-yl}-(3-methyl-thiophen-2-yl)-methanone]	90 to 92

SMILES	melting point [°C]
Cn1cccc1C(=O)N1CCC[C@H](c2nc(-c3ccc(F)cc3)no2)C1 [Example 33, {(S)-3-[3-(4-Fluoro-phenyl)-1,2,4-oxadiazol-5-yl]-piperidin-1-yl}-(1-methyl-1H-pyrrol-2-yl)-methanone]	84 to 85
O=C(c1ccc(F)c(F)c1)N1CCC[C@H](c2nc(-c3ccc(F)cc3)no2)C1 [Example 35, (3,4-Difluoro-phenyl)-{(S)-3-[3-(4-fluoro-phenyl)-[1,2,4]oxadiazol-5-yl]-piperidin-1-yl}-methanone]	120 to 121
O=C(c1ccc2ncsc2c1)N1CCC[C@H](c2nc(-c3ccc(F)cc3)no2)C1 [Example 36, Benzothiazol-6-yl-{(S)-3-[3-(4-fluoro-phenyl)-1,2,4-oxadiazol-5-yl]-piperidin-1-yl}-methanone]	63 to 64
O=C(c1nccs1)N1CCC[C@H](c2nc(-c3ccc(F)cc3)no2)C1 [Example 37, {(S)-3-[3-(4-Fluoro-phenyl)-1,2,4-oxadiazol-5-yl]-piperidin-1-yl}-thiazol-2-yl-methanone]	94 to 95
Cc1ncsc1C(=O)N1CCC[C@H](c2nc(-c3ccc(F)cc3)no2)C1 [Example 38, {(S)-3-[3-(4-Fluoro-phenyl)-1,2,4-oxadiazol-5-yl]-piperidin-1-yl}-(4-methyl-thiazol-5-yl)-methanone]	122 to 124
O=C(c1ccc(N2CCOCC2)nc1)N1CCC[C@H](c2nc(-c3ccc(F)cc3)no2)C1 [Example 39, {(S)-3-[3-(4-Fluoro-phenyl)-1,2,4-oxadiazol-5-yl]-piperidin-1-yl}-(6-morpholin-4-yl-pyridin-3-yl)-methanone]	112 to 114
O=C(c1ccc2[nH]ccc2c1)N1CCC[C@H](c2nc(-c3ccc(F)cc3)no2)C1 [Example 40, {(S)-3-[3-(4-Fluoro-phenyl)-1,2,4-oxadiazol-5-yl]-piperidin-1-yl}-(1H-indol-5-yl)-methanone]	191 to 192
O=C(CCc1ccc(F)cc1)N1CCC[C@H](c2nc(-c3ccc(F)cc3)no2)C1 [Example 42, 3-(4-Fluoro-phenyl)-1-{(S)-3-[3-(4-fluoro-phenyl)-1,2,4-oxadiazol-5-yl]-piperidin-1-yl}-propan-1-one]	83 to 84
O=C(c1ccc2[nH]cnc2c1)N1CCC[C@H](c2nc(-c3ccc(F)cc3)no2)C1 [Example 45, {(S)-3-[3-(4-Fluoro-phenyl)-1,2,4-oxadiazol-5-yl]-piperidin-1-yl}-benzoimidazol-6-yl-methanone]	110 to 115
O=C(c1ccc(F)cc1)N1CCC[C@H](c2nc(-c3ccncc3)no2)C1 [Example 48, (4-Fluoro-phenyl)-[(S)-3-(3-pyridin-4-yl-[1,2,4]oxadiazol-5-yl)-piperidin-1-yl]-methanone]	113 to 115
O=C(c1ccc(F)cc1)N1CCC[C@H](c2nc(-c3ccc4ccccc4c3)no2)C1 [Example 53, (4-Fluoro-phenyl)-[(S)-3-(3-naphthalen-2-yl-[1,2,4]oxadiazol-5-yl)-piperidin-1-yl]-methanone]	142 to 143
O=C(c1ccc(F)c(F)c1)N1CCC[C@H](c2nc(-c3ccccc3F)no2)C1 [Example 59]	115 to 119
O=C(c1ccc(F)cc1)N1CCOC(c2nc(-c3ccc(F)cc3)no2)C1 (stereo not shown) [Example 60, (4-Fluoro-phenyl)-{2-[3-(4-fluoro-phenyl)-[1,2,4]oxadiazol-5-yl]-morpholin-4-yl}-methanone]	116 to 117
O=C(/C=C/c1ccc(F)cc1)N1CCC[C@H](c2nc(-c3ccc(F)cc3)no2)C1 [Example 64, (E)-3-(4-Fluoro-phenyl)-1-{(S)-3-[3-(4-fluoro-phenyl)-[1,2,4]oxadiazol-5-yl]-piperidin-1-yl}-propenone]	137 to 139
O=C(c1ccc(F)cc1)N1CCC[C@H](c2nc(-c3ccccc3)no2)C1 [Example 69, (4-Fluoro-phenyl)-[(S)-3-(3-phenyl-[1,2,4]oxadiazol-5-yl)-piperidin-1-yl]-methanone]	116 to 118
O=C(c1ccc(F)c(F)c1)N1CCC[C@H](c2nc(-c3ccccc3)no2)C1 [Example 70, (3,4-Difluoro-phenyl)-[(S)-3-(3-phenyl-[1,2,4]oxadiazol-5-yl)-piperidin-1-yl]-methanone]	149 to 151
O=C(c1ccc(F)cc1)N1CCC[C@H](c2nc(-c3ccc([N+](=O)[O-])cc3)no2)C1 [Example 71, (4-Fluoro-phenyl)-{(S)-3-[3-(4-nitro-phenyl)-[1,2,4]oxadiazol-5-yl]-piperidin-1-yl}-methanone]	162 to 164
O=C(c1ccc(F)c(F)c1)N1CCC[C@H](c2nc(-c3ccc([N+](=O)[O-])cc3)no2)C1 [Example 72, (3,4-Difluoro-phenyl)-{(S)-3-[3-(4-nitro-phenyl)-[1,2,4]oxadiazol-5-yl]-piperidin-1-yl}-methanone]	138 to 140
